The source of these data is patent publication US10968163B2, “Alpha-truxillic acid derivatives and pharmaceutical compositions thereof” (The Research Foundation for the State University of New York, priority 2016, dated 2021).

Where only a bound is given, the exact number is not on record here.

The target of assay [1] is FABP7 (Homo sapiens (Human), UniProt O15540). Nature of the assay: DAUDA, ANS or NBD-stearate fluorescence displacement binding assay, FABP7. Conditions: average ± S.E. of at least three independent experiments.
FABP7, sequence (O15540 whole entry, species assumed): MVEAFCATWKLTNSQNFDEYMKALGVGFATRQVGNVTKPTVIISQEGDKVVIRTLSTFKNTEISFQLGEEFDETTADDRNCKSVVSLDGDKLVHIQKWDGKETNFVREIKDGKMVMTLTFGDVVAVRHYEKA
Assay [2] has as its target T1, FABP5 (Homo sapiens (Human), UniProt Q01469). Nature of the assay: DAUDA, ANS or NBD-stearate fluorescence displacement binding assay, FABP5. To be noted: average ± S.E. of at least three independent experiments. The procedure:
FABP5 (30 μg), NBD-stearate (1 μM), and a competitor test compound were incubated in 30 mM Tris-HCl, 100 mM NaCl buffer (pH 7.6). […] The initial assay was run with buffer (30 mM Tris-HCl buffer), negative controls (buffer and NBD-stearate), positive controls (buffer, NBD-stearate, FABP5), and experimental wells with a variable test compound added (arachidonic acid or one of the 48 test compounds) at 10 μM. […] GraphPad Prism was also used to determine the Ki of these select competitors from the equation Ki=IC50/(1+([NBD-stearate]/Kd)). The Kd of NBD-stearate for FABP5 had been determined previously through incubating FABP5 with increasing concentrations of NBD-stearate.
Determination of Ki was derived from DAUDA or NBD-stearate displacement assays (see Table 1).

Assay [3] has as its target FABP3 (Homo sapiens (Human), UniProt P05413). Nature of the assay: DAUDA, ANS or NBD-stearate fluorescence displacement binding assay, FABP3. To be noted: average ± S.E. of at least three independent experiments.
In assay [4] the test system is formalin induced pain. To be noted: formalin induced mouse models; cited from earlier work.
The conditions of assay [5]: compared with morphine; cited from earlier work.
Assay [6] deals with T1, FABP5. To be noted: read-out: Kd of NBD-stearate for FABP5; cited from earlier work.

T1 sequence (Q01469 whole entry, species assumed): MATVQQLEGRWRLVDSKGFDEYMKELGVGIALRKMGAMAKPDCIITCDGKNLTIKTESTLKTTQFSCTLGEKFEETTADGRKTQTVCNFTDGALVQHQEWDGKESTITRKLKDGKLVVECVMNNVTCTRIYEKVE
FABP3, sequence (P05413 whole entry, species assumed): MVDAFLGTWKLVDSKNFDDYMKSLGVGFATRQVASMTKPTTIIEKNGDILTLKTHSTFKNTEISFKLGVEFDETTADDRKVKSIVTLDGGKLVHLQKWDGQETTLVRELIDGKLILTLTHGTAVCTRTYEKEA

On to `C#Cc1cccc2c(OC(=O)[C@H]3[C@@H](c4ccccc4)[C@H](C(=O)O)[C@@H]3c3ccccc3)cccc12` [Compound 3p, 5-Ethynylnaphth-1-yl α-2,4-diphenylcyclobutane-1,3-dicarboxylate], for which the Ki (as a rule, the dissociation constant of the complex between target and ligand, obtained from inhibition or displacement) in assay [1] came to 1030 ± 220 nM; in assay [2], 3920 ± 750 nM; in assay [3], 4940 ± 310 nM.
The matching figures for `O=C(O)[C@H]1[C@H](c2ccccc2)[C@H](C(=O)OCc2ccc(F)cc2)[C@H]1c1ccccc1` [Compound 3c, 4-Fluorobenzyl α-2,4-diphenylcyclobutane-1,3-dicarboxylate]: 1650 ± 210 nM, 2420 ± 180 nM and above 10000 nM.
Regarding `O=C(O)[C@H]1[C@H](c2ccccc2)[C@H](C(=O)Oc2cccc(-c3ccccc3)c2)[C@H]1c1ccccc1` [Compound 3h, Biphenyl-3-yl α-2,4-Diphenylcyclobutane-1,3-dicarboxylate], the Ki in assay [1] amounted to 740 ± 170 nM; in assay [3], 9750 ± 790 nM.
Consider `O=C(O)[C@H]1[C@@H](c2ccccc2)[C@H](C(=O)OCc2ccccc2)[C@@H]1c1ccccc1` [Compound 3a, Benzyl α-2,4-diphenylcyclobutane-1,3-dicarboxylate], for which, in assay [3], the Ki is above 10000 nM.
Take `O=C(O)[C@H]1[C@H](c2ccccc2)[C@H](C(=O)Oc2ccccc2-c2ccccc2O)[C@H]1c1ccccc1` [Compound 3j, 2′-HO-biphenyl-2-yl α-2,4-diphenylcyclobutane-1,3-dicarboxylate]: the inhibition constant (Ki) in assay [1] stood at 540 ± 180 nM; in assay [2] it was 1590 ± 430 nM; in assay [3], 3520 ± 530 nM.
The matching figures for `O=C(O)[C@H]1[C@H](c2ccccc2)[C@H](C(=O)OCC2c3ccccc3-c3ccccc32)[C@H]1c1ccccc1` [Compound 3q, 9-Fluorenylmethyl α-2,4-diphenylcyclobutane-1,3-dicarboxylate]: 2700 ± 620 nM, 2560 ± 160 nM and above 10000 nM.
In the case of `O=C(O)C1C(c2ccccc2)C(C(=O)OC2CCCCC2)C1c1ccccc1` (stereo not drawn) [Compound 3s, Cyclohexyl α-2,4-diphenylcyclobutane-1,3-dicarboxylate], the Ki in assay [1] is 500 ± 110 nM; in assay [3] it was above 10000 nM.
Taken in the same sequence, the figures for `O=C(O)[C@H]1[C@H](c2ccccc2)[C@H](C(=O)Oc2ccc(Cl)c(Cl)c2Cl)[C@H]1c1ccccc1` [Compound 3k] were 540 ± 20 nM and 2980 ± 850 nM.
Taken in the same sequence, the figures for `COc1ccccc1C1C(C(=O)O)C(c2ccccc2OC)C1C(=O)O[C@@H]1CCCC[C@H]1c1ccccc1` (stereo partly drawn) [Compound 4e, (1R,2S)-2-Phenylcyclohexyl α-2,4-di(2-methoxylphenyl)cyclobutane-1,3-dicarboxylate] were 400 ± 30 nM and 400 ± 80 nM.
As for `O=C(O)[C@H]1[C@H](c2ccccc2)[C@H](C(=O)Oc2ccc(-c3ccccc3)cc2)[C@H]1c1ccccc1` [Compound 3i], the Ki in assay [1] came to 2270 ± 30 nM; in assay [2], 2520 ± 360 nM; in assay [3], 3930 ± 160 nM.
For `O=C(O)[C@H]1[C@H](c2ccccc2Cl)[C@H](C(=O)OCC2c3ccccc3-c3ccccc32)[C@H]1c1ccccc1Cl` [Compound 4k, 9-Fluorenylmethyl α-2,4-di(2-chlorophenyl)cyclobutane-1,3-dicarboxylate], the Ki is 3540 ± 770 nM in assay [1] and above 10000 nM in assay [3].
`O=C(O)[C@H]1[C@@H](c2ccc(O)cc2)[C@H](C(=O)Oc2cccc3ccccc23)[C@@H]1c1ccc(O)cc1` [Compound 4d] gave a Ki in assay [2] above 10000 nM.
`O=C(O)C1C(c2ccccc2)C(C(=O)O)C1c1ccccc1` (stereo not drawn) [α-truxillic acid, α-2,4-diphenylcyclobutene-1,3-dicarboxylic Acid]: the “antinociceptive effect in early and late stage pain” value in assay [4] was “best antinociceptive agent in both early and late stage pain”.
Regarding `CCOCCOCCOCCn1cc(-c2cccc(OC(=O)[C@H]3[C@@H](c4ccccc4)[C@H](C(=O)O)[C@@H]3c3ccccc3)c2)nn1` [Compound 3t], the Ki was 1060 ± 70 nM in assay [1], above 10000 nM in assay [2] and above 10000 nM in assay [3].
Take `O=C(O)[C@H]1[C@H](c2ccccc2Cl)[C@H](C(=O)OC2CCCC[C@H]2c2ccccc2)[C@H]1c1ccccc1Cl` (stereo partly drawn) [Compound 4f, (1R,2S)-2-Phenylcyclohexyl α-2,4-di(2-chlorophenyl)cyclobutane-1,3-dicarboxyliate]: the Ki in assay [1] and in assay [3] was above 10000 nM in each case.
On to `COc1cc([C@H]2[C@H](C(=O)O[C@@H]3C[C@@H]4[C@@H](CN(C)C[C@@H]4C)[C@@H]3C)[C@H](c3ccc(O)c(OC)c3)[C@H]2C(=O)O[C@@H]2C[C@@H]3[C@@H](CN(C)C[C@@H]3C)[C@@H]2C)ccc1O` [(−)-incarvillateine], for which the antinociceptive properties entry in assay [5] is given as “antinociceptive properties on the same level as morphine”.
For `O=C(O)[C@H]1[C@H](c2ccccc2)[C@H](C(=O)Oc2ccccc2I)[C@H]1c1ccccc1` [Compound 3e], the Ki in assay [1] was 940 ± 340 nM; in assay [2] it was 1340 ± 210 nM; in assay [3], 1180 ± 100 nM.
For `O=C(O)[C@H]1[C@H](c2ccccc2)[C@H](C(=O)OC2Cc3ccccc3C2)[C@H]1c1ccccc1` [Compound 3m, Indan-2-yl α-2,4-diphenylcyclobutane-1,3-dicarboxylate], the Ki is 2410 ± 90 nM in assay [1] and above 10000 nM in assay [3].
Turning to `O=C(O)[C@H]1[C@@H](c2ccccc2)[C@H](C(=O)OCC(F)(F)F)[C@@H]1c1ccccc1` [Compound 3r, 2,2,2-Trifluoroethyl α-2,4-diphenylcyclobutane-1,3-dicarboxylate], the Ki in assay [2] and in assay [3] was above 10000 nM throughout.
As for `O=C(O)[C@H]1[C@H](c2ccccc2)[C@H](C(=O)OCc2ccc(Br)cc2)[C@H]1c1ccccc1` [Compound 3d, 4-Bromobenzyl α-2,4-diphenylcyclobutane-1,3-dicarboxylate], the Ki in assay [1] was 1250 ± 30 nM; in assay [2] it was 1580 ± 160 nM; in assay [3], above 10000 nM.
Take `O=C(O)[C@H]1[C@H](c2c(Cl)cccc2Cl)[C@H](C(=O)OC2CCCC[C@H]2c2ccccc2)[C@H]1c1c(Cl)cccc1Cl` (stereo partly drawn) [Compound 4g, (1R,2S)-2-Phenylcyclohexyl α-2,4-di(2,6-dichlorophenyl)cyclobutane-1,3-dicarboxylate]: in assay [3], the Ki is above 10000 nM.
Turning to `O=C(O)C1C(c2ccccc2Br)C(C(=O)O[C@@H]2CCCC[C@H]2c2ccccc2)C1c1ccccc1Br` (stereo partly drawn) [Compound 4h, (1R,2S)-2-Phenylcyclohexyl α-2,4-di(2-bromophenyl)cyclobutane-1,3-dicarboxylate], the inhibitory constant (Ki) in assay [1] and in assay [3] was above 10000 nM each time.
As for `COc1cc([C@H]2[C@H](C(=O)O)[C@H](c3ccc(O)c(OC)c3)[C@H]2C(=O)Oc2cccc3ccccc23)ccc1O` [Compound 4a, 1-Naphthyl α-2,4-di(3-methoxy-4-hydroxy)cyclobutane-1,3-dicarboxylate], the figures for the Ki in assay [1], in assay [2] and in assay [3] were 2120 ± 190 nM, above 10000 nM and 1060 ± 190 nM, respectively.
Taken in the same sequence, the figures for `COc1ccc(COC(=O)[C@H]2[C@@H](c3ccccc3)[C@H](C(=O)O)[C@@H]2c2ccccc2)cc1` [Compound 3b, 4-Methoxybenzyl α-2,4-diphenylcyclobutane-1,3-dicarboxylate] were 1140 ± 60 nM, 2150 ± 100 nM and above 10000 nM.
For `CCCCCCC(CCCCCCCCCCC(=O)O)N(C)c1ccc([N+](=O)[O-])c2nonc12` (centres unmarked) [NBD-stearate], the dissociation constant Kd (in general, the free concentration of one partner at which half of the binding sites on the other are occupied at equilibrium, for simple one-to-one binding) in assay [6] was 160 nM.
With `COc1ccccc1[C@H]1[C@H](C(=O)O)[C@H](c2ccccc2OC)[C@H]1C(=O)OCC1c2ccccc2-c2ccccc21` [Compound 4j, 9-Fluorenylmethyl α-2,4-di(2-methoxylphenyl)cyclobutane-1,3-dicarboxylate], the Ki in assay [1] and in assay [3] was above 10000 nM in each case.
